Measurements from patent US20260158050A1, “USE OF EIDD-1931 OR DERIVATIVE THEREOF IN TREATMENT OF ENTEROVIRUS INFECTION” (ACADEMY OF MILITARY MEDICAL SCIENCES, priority 2022, published 2026).

System: various enteroviruses
Experiment: broad-spectrum anti-enteroviral activity (CPE), summary over viruses
Type: cell-based
Settings: all viruses of Table 1; read-out: EC50 values against various enteroviruses
Procedure: In this experiment, the experiment on protection of EIDD-1931 and EIDD-2801 against CPE caused by EV-A71 virus AH08/06 strain, EV-D68 virus STL-2014-12 strain, CV-A6 TW-2007-00141 strain, and CV-A16 190-D1 strain were all performed by using RD cells. The experiments on protection of EIDD-1931 and EIDD-2801 against CPE caused by CV-B3 Nancy strain were performed by using Vero cells. The specific experimental methods were the same as those in Example 1.

O=c1nc(NO)ccn1[C@@H]1O[C@H](CO)[C@@H](O)[C@H]1O [EIDD-1931]
EC50: < 20 µM
